Experimental data as given in patent US12702650B2, “Methods and compositions for treating smith-magenis syndrome” (The Regents of the University of California, priority 2019, dated 2026).

Legend:
Lgl1^+/− mice [1] = assay: three-chamber social interaction test after NMDAR blocker injection; assay type: in vivo, mouse
Procedure: Pharmacological blockers of NMDARs were used, and animals tested in the three-chamber social interaction test.
Social interaction test—The social interaction test was performed as previously described (Yang et al., 2011). The sociability apparatus (Stoetling) has three 20 cm×40 cm chambers and two target enclosures 7 cm in diameter and 15 cm tall. During testing, the apparatus was surrounded by opaque panels to prevent mice from seeing out of the apparatus.
Animals were placed in the center chamber of the 3-chambered sociability apparatus with the doors between chambers closed for 10 minutes to habituate to the testing conditions. The doors were removed, and mice were allowed to explore the full field for 10 minutes. Non-littermate strain- and age-matched target mice from a separate cage were introduced during the social interaction phase of the test. For the social novelty phase, target mice from the social interaction phase were kept in the same location and a novel target mouse was introduced to the opposite chamber. For scoring of interaction time, ROIs containing the target mouse and novel object were selected in MATLAB. ROIs were selected by experimenters blinded to the animal genotypes or virus treatment.
Scoring for distance travelled and thigmotaxis during the open field test, as well as time spent interacting with objects in the Novel Object Recognition test and time spent interacting with target mice and objects in the Social Interaction test was performed using Autotyping 15.04 in MATLAB 2014b (Patel et al., 2014)(MathWorks).

Lgl1^+/− mice [2] = assay: nestlet shredding (stereotyped repetitive behavior); assay type: in vivo, mouse; conditions: Lgl1^+/+ and Lgl1^+/− mice; ketamine injection vs saline
Procedure: Nestlet shredding—Mice were removed from their home cage and placed individually into a clean novel cage containing a weighed piece of cotton nesting material of approximately 2.8 g. Mice were left in the cage for 60 minutes. At the end of the testing period, mice were returned to their home cage. Shredded material was separated from the undisturbed portion, which was weighed (Li et al., 2006).

SMILES: C[C@]12N[C@H](Cc3ccccc31)c1ccccc12 [MK-801, dizocilpine]
- preference for social interaction (social interaction phase) (Lgl1^+/− mice [1]; intraperitoneal injection of 0.3 mg/kg MK-801): strongly preferred social interaction

SMILES: CNC1(c2ccccc2Cl)CCCCC1=O (stereo not shown) [ketamine]
- nestlet-shredding activity (Lgl1^+/− mice [2]): did not change
- preference for social interaction (social interaction phase) (Lgl1^+/− mice [1]; intraperitoneal injection of 30 mg/kg ketamine, compared with control animals): clear preference for social interaction

SMILES: CC12CC3CC(C)(C1)CC(N)(C3)C2 [memantine]
- preference for social interaction (social interaction phase) (Lgl1^+/− mice [1]; intraperitoneal injection of 20 mg/kg memantine): strongly preferred social interaction
